For orientation: IC50 means the concentration needed to halve the response being measured.

3 compounds from ChEMBL document CHEMBL5113548, “Novel Lactams as Cbl-b Inhibitors for Treating Cancer” (ACS Med Chem Lett, 2022) can be followed below.

This test deals with E3 ubiquitin-protein ligase CBL-B (Homo sapiens, UniProt Q13191). Kind of test: Inhibition of Cbl-b (unknown origin) assessed as reduction in LCK ubiquitination preincubated for 60 mins followed by kinase mix addition measured after 90 mins by TR-FRET assay. In general terms: TR-FRET usually uses a lanthanide donor and a delayed reading to cut background.
Sequence of E3 ubiquitin-protein ligase CBL-B (Q13191 whole entry): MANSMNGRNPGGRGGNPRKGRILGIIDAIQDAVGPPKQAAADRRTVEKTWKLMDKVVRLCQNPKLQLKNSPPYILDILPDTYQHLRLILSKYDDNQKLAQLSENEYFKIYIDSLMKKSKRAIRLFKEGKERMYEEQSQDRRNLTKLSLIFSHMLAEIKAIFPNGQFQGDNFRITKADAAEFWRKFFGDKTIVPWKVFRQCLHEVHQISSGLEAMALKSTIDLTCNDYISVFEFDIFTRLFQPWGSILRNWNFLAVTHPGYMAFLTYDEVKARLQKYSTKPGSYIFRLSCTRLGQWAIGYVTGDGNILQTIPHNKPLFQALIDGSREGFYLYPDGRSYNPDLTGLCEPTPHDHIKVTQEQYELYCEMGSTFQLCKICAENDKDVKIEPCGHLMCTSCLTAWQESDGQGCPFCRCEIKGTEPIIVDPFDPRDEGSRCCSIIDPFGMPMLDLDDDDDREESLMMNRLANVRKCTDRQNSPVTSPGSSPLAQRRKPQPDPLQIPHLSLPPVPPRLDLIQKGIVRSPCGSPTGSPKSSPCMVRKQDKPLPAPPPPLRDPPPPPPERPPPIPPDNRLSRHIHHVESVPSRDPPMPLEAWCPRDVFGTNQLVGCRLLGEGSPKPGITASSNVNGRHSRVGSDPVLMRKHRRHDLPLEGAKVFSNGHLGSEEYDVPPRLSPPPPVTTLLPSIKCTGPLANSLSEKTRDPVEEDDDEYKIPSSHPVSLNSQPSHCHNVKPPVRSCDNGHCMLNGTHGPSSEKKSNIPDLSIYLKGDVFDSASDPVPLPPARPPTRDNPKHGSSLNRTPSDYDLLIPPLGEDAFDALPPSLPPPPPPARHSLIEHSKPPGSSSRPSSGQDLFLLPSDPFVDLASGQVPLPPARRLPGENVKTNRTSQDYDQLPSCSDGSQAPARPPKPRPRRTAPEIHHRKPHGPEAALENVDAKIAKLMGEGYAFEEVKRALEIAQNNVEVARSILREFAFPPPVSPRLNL

As to `CC(C)[C@@H]1CN(C)CCN1Cc1cc2c(c(C(F)(F)F)c1)CN(c1cc(C3(Cc4nncn4C)COC3)cc(OC3CCCC3)n1)C2=O`, the IC50 amounted to 5.5 nM.

As for `C[C@@H](NC1(C)CCC1)c1cc2c(c(C(F)(F)F)c1)CN(c1cccc(C3(Cc4nncn4C)CC(F)(F)C3)c1)C2=O`, the IC50 came out at 5.8 nM.

`C[C@@H](NC1(C)CCC1)c1cc2c(c(C(F)(F)F)c1)CN(c1cccc(C3([C@@H](F)c4nncn4C)COC3)c1)C2=O`: the IC50 was 6.7 nM.
